Five compounds from patent US7049337B2 (Wayne State University, priority 2000, dated 2006) can be followed below.

One assay deals with T1, human D3 receptor (Homo sapiens, UniProt P35462).
T1 construct: expressed in transfected cells; host or cells: HEK 293 cells, stably transfected (Watts and colleagues, Oregon Health Sciences University); membranes prepared from the cells
Description: [3H]spiperone binding to cloned human D3 receptors in HEK 293 cell membranes. To be noted: for D3 receptor activity compared with control, in words: displacing [3H]spiperone from D3 receptors in HEK cells, racemic compounds versus (+)-7-OH-DPAT; for D2L/D3L: ratio of Ki D2L to Ki D3; for Differential activity (D2L/D3) compared with control, in words: versus (+)-7-OH-DPAT control. The method, then: (§1) The target compounds synthesized were assayed for differential CNS activity by binding studies employing cloned human receptors expressed in HEK cells. […] The compounds were evaluated for their binding at the D2 and D3 receptors.
(§2) Binding affinities of these novel compounds were assessed according to previously published procedures. V. J. Watts et al., EUR. J. PHARMACOL., 1993, 239,271; V. J. Watts et al., EUR. J. PHARMACOL., 1996, 50, 966. Human embryonic kidney (HEK) 293 cells were stably transfected with cDNA for the human D2L and D3 receptors by Watts and colleagues at Oregon Health Sciences University in accordance with published procedures; V. J. Watts, MOL. PHARMACOL, op. cit., and graciously shipped to the University of Illinois for receptor binding assays. Membranes were prepared from the cells as described previously, V. J. Watts et al., EUR. J. PHARMACOL., 1993, op. cit. […] (+)-Butaclamol (2 ,μM) was used to define nonspecific binding. Assays were terminated with a 24-pin Brandel harvester as described previously, M. E. A. Reith et al., BIOL. CHEM. 1986, 261, 7300. IC50 values were estimated by nonlinear regression analysis with the ALLFIT equation, and converted to inhibition constants (Ki) by the Cheng-Prusoff equation as in previous work, Reith et al., J. BIOL. CHEM., op. cit.

The target of the next assay is T2, human D2L receptor (Homo sapiens, UniProt P14416).
T2 construct: expressed in transfected cells; host or cells: HEK 293 cells, stably transfected (Watts and colleagues, Oregon Health Sciences University); membranes prepared from the cells
Description: [3H]spiperone binding to cloned human D2L receptors in HEK 293 cell membranes. On the procedure:
as §1, §2

Where [1] appears, read: cloned human D2L in HEK cells, 0.4 nM [3H]spiperone, 1 h, 30° C., no GTP, mean ± spread (n).

Where two headings read alike, the source gives them in different places.

T1 sequence (P35462 whole entry): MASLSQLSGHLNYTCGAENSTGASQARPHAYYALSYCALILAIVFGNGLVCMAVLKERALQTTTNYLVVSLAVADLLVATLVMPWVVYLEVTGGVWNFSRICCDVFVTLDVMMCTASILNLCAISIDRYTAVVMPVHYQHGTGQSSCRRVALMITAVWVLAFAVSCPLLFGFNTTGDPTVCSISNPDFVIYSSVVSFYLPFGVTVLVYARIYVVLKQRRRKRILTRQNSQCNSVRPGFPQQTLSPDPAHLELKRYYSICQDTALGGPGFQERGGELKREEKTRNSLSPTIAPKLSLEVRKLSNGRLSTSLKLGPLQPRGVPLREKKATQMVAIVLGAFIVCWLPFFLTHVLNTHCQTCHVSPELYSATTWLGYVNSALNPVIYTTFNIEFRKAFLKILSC
T2 sequence (P14416 whole entry): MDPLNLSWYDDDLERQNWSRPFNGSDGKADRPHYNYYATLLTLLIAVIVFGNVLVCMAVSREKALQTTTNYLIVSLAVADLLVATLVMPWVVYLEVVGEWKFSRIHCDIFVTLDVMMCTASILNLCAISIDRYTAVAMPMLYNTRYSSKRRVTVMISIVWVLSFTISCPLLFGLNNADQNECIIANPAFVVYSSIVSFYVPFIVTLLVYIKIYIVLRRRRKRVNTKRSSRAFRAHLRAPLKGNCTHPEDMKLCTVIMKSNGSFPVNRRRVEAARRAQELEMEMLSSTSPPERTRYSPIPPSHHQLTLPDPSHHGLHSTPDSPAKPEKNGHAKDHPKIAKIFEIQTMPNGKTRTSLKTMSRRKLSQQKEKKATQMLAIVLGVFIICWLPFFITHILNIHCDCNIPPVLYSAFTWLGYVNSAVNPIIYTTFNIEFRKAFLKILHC

Consider `C#CCN(CCCC)C1CCc2ccc(O)cc2C1` (racemic) [Example 4, (R,S)-trans-7-Hydroxy-2-[N-propynyl-N-(butyl-amino]tetralin], for which, at human D3 receptor, the Ki (usually a measure of affinity in units of concentration, obtained from inhibition or displacement) turned out to be 4.9 ± 1.2 nM; the “D3 receptor activity compared with control, in words” value is given as “about as active as the (+) isomer”; the D2L/D3L is 108; the “Differential activity (D2L/D3) compared with control, in words” value (shortened to “Differential activity (D2L/D3)”) is listed as “slightly greater activity differential”. This compound also displayed a Ki at human D2L receptor (setting [1]) of 534 ± 72 nM.
Regarding `C#CCN(CCCC#N)C1CCc2ccc(O)cc2C1` (racemic) [Example 8, (R,S)-trans-7-Hydroxy-2-[N-propynyl-N-(3′-cyano-1′-propyl)amino]tetralin], the Ki on human D3 receptor (cloned human D3 in HEK cells, 0.4 nM [3H]spiperone, 1 h, 30° C., no GTP, mean ± spread (n)) is 23.5 ± 4.7 nM. At human D3 receptor, the “D3 receptor activity compared with control, in words” value is “about the same as the control”; the D2L/D3L was determined as 353; the “Differential activity (D2L/D3)” value is “more than double the activity differential of the control”. For the same compound, the Ki on human D2L receptor (setting [1]) is 8310 nM.
In the case of `C#CCN(CC)C1CCc2ccc(O)cc2C1` (racemic) [Example 5, (R,S)-trans-7-Hydroxy-2-[N-propynyl-N-ethyl-amino]tetralin], at human D3 receptor, the Ki is 13.8 ± 2.8 nM; the “D3 receptor activity compared with control, in words” value is given as “high activity, though not as high as the compound of Example 4 or the control”; the D2L/D3L came out at 108; the “Differential activity (D2L/D3)” value is reported as “as high as the compound of Example 4”. This compound also displayed a Ki on human D2L receptor (setting [1]) of 1490 nM.
Consider `C#CCN(CCc1cccs1)C1CCc2ccc(O)cc2C1` (racemic) [Example 7, (R,S)-trans-7-Hydroxy-2-[N-propynyl-N-ethyl(thienyl)-amino]tetralin], for which, at human D3 receptor, the “D3 receptor activity compared with control, in words” value is given as “about the same as the control”; the D2L/D3L worked out at 211; the “Differential activity (D2L/D3)” value is listed as “more than double the activity differential of the control”. In addition, the Ki on human D3 receptor (read-out: D3 HEK Cells [^3H]spiperone, Ki, cloned human D3 in HEK cells, 0.4 nM [3H]spiperone, 1 h, 30° C., no GTP, mean ± spread (n)) was found to be 8 ± 0.3 nM. The Ki at human D2L receptor (read-out: D2L HEK Cells [^3H]spiperone, Ki, […] nM [3H]spiperone, 1 h, 30° C., no GTP, mean ± spread (n)) came to 1700 nM.
For the compound `C#CCN(CCc1ccc(F)cc1)C1CCc2ccc(O)cc2C1` (racemic) [Example 6, (R,S)-trans-7-Hydroxy-2-[N-propynyl-N-ethyl(4′-fluorophenyl)amino]tetralin], on human D3 receptor, the Ki came out at 14.5 ± 4.1 nM; the D2L/D3L came out at 111; the “Differential activity (D2L/D3)” value is on record as “about the same as the control”. For the same compound, at human D2L receptor (setting [1]), the Ki is 1610 nM.
